Assay results reported in publication PMC10254170, “Diastereoselective Synthesis of the Borylated D-Galactose Monosaccharide 3-Boronic-3-Deoxy-D-Galactose and Biological Evaluation in Glycosidase Inhibition and in Cancer for Boron Neutron Capture Therapy (BNCT)” (Molecules, 2023).

Legend:
BE2-C (neuroblastoma) = assay: Cancer screening (MTT growth inhibition), BE2-C; assay type: cell-based; conditions: 72 h; for Percentage (%) cell growth inhibition / inhibition at 25 µM: 25 µM of drug, n = 3, mean ± SEM; for inhibition at 25 µM: read-out: Percentage (%) cell growth inhibition
Method: (§1) All test agents were prepared as stock solutions (20 mM) in dimethyl sulfoxide (DMSO) and stored at −20 °C. Cell lines used in the study included: HT29 (colorectal carcinoma), U87 and SJ-G2 (glioblastoma), MCF-7 (breast carcinoma), A2780 (ovarian carcinoma), H460 (lung carcinoma), A431 (skin carcinoma), Du145 (prostate carcinoma), BE2-C (neuroblastoma), MiaPaCa-2 (pancreatic carcinoma), SMA560 (spontaneous murine astrocytoma), and ADDP (Cis Res Ovarian), together with one non-tumor-derived normal breast cell line (MCF10A). All cell lines were incubated in a humidified atmosphere with 5 % CO2 at 37 °C. The cancer cell lines were maintained in Dulbecco’s modified Eagle’s medium (DMEM; Sigma, Australia) supplemented with fetal bovine serum (10%), sodium pyruvate (10 mM), penicillin (100 IUmL^−1), streptomycin (100 µg mL^−1), and L-glutamine (2 mM).
(§2) Growth inhibition was determined by plating cells in duplicate in medium (100 µL) at a density of 2500–4000 cells per well in 96-well plates. On day 0 (24 h after plating), when the cells are in logarithmic growth, medium (100 µL) with or without the test agent was added to each well. After 72 h of drug exposure, growth inhibitory effects were evaluated using the (3-(4,5-dimethyltiazol-2-yl)-2,5-diphenyltetrazolium bromide) (MTT) assay and absorbance read at 540 nm. The percentage growth inhibition was calculated at a fixed concentration of 25 µM, based on the difference between the optical density values on day 0 and those at the end of drug exposure. Each data point is the mean ± the standard error of the mean (SEM) calculated from three replicates, which were performed on separate occasions and in separate cell line passages.

[1] = tested on: rat intestinal maltase α-glucosidase; assay: Glycosidase inhibition, rat intestinal maltase; assay type: biochemical; conditions: for inhibition %: in methanol
Source text: (§3) Glycosidase modulation studies need to explore selectivity as well as potency. Our drugs and controls are therefore screened against a panel of glycosidases in methanol (Table 1) to identify the glycosidase-related disease area(s), selectivity profile, and potency of biological action for each drug. The presence of organic boron covalently bonded to the drug structure also grants a reduced toxicity profile. Following the glycosidase inhibition range recommendations, an IC50 value >250 μm denotes weak inhibition, 100–249 μm denotes moderate inhibition, 10–99 μm good inhibition, 0.1–9 μm potent inhibition, and <0.1 μm very potent inhibition. […] Our boronated D-galactose 7 represents a novel lead in glycosidase inhibition.
(§4) The glycosidases screened are the following: rice α-glucosidase, yeast α-glucosidase, Bacillus α-glucosidase, rat intestinal maltase α-glucosidase, almond β-glucosidase, bovine liver β-glucosidase, coffee beans α-galactosidase, bovine liver β-galactosidase, Jack bean α-mannosidase, snail β-mannosidase, Penicillium decumbens α-L-rhamnosidase, bovine kidney α-L-fucosidase, Eschierichia coli β-glucuronidase, bovine liver β-glucuronidase, porcine kidney trehalase, Aspergillus niger amyloglucosidase, and bovine kidney N-acetyl-β-glucosaminidase. The disease areas for each glycosidase are summarized in [1].
(§5) Brush border membranes were prepared from the rat small intestine according to the method of Kessler et al. and were assayed at pH 6.8 for rat intestinal maltase using maltose. For rat intestinal maltase, porcine kidney trehalase, and A. niger amyloglucosidase activities, the reaction mixture contained 25 mM maltose and the appropriate amount of enzyme, and the incubations were performed for 10–30 min at 37 °C. The reaction was stopped by heating at 100 °C for 3 min. After centrifugation (600 g; 10 min), the resulting reaction mixture was added to the Glucose CII-test Wako (Wako Pure Chemical Ind., Osaka, Japan). The absorbance at 505 nm was measured to determine the amount of the released D-glucose. Other glycosidase activities were determined using an appropriate para-nitrophenyl glycoside as substrate at the optimum pH of each enzyme. The reaction mixture contained 2 mM of the substrate and the appropriate amount of enzyme. The reaction was stopped by the addition of 400 mM Na2CO3. The released para-nitrophenol was measured spectrometrically at 400 nm. All reactions run in methanol.

SJ-G2 (glioblastoma) = assay: Cancer screening (MTT growth inhibition), SJ-G2; assay type: cell-based; conditions: 72 h; for Percentage (%) cell growth inhibition: 25 µM of drug; for Percentage (%) cell growth inhibition / inhibition at 25 µM: n = 3, mean ± SEM; for inhibition at 25 µM: SJ-G2, 25 µM of drug, read-out: Percentage (%) cell growth inhibition
Method: as §1, §2

[2] = tested on: MCF10A (non-tumor-derived normal breast cell line); assay: Cancer screening (MTT growth inhibition), MCF10A; assay type: cell-based; conditions: 72 h; for Percentage (%) cell growth inhibition / inhibition at 25 µM: 25 µM of drug, n = 3, mean ± SEM; for inhibition at 25 µM: read-out: Percentage (%) cell growth inhibition
Method: as §1
The non-cancer MCF10A cell line was maintained in DMEM:F12 (1:1) cell culture media, 5% heat inactivated horse serum, and supplemented with penicillin (50 IUmL^−1), streptomycin (50 µg mL^−1), HEPES (20 mM), L-glutamine (2 mM), epidermal growth factor (20 ng mL^−1), hydrocortisone (500 ng mL^−1), cholera toxin (100 ng mL^−1), and insulin ([…]).
as §2

MCF-7 (breast carcinoma) = assay: Cancer screening (MTT growth inhibition), MCF-7; assay type: cell-based; conditions: 72 h; for Percentage (%) cell growth inhibition: 25 µM of drug; for Percentage (%) cell growth inhibition / inhibition at 25 µM: n = 3, mean ± SEM; for inhibition at 25 µM: MCF7, 25 µM of drug, read-out: Percentage (%) cell growth inhibition
Method: as §1, §2

snail β-mannosidase = assay: Glycosidase inhibition, snail β-mannosidase; assay type: biochemical; conditions: for inhibition %: in methanol
Source text: as §3, §4
(§6) The enzymes α-glucosidase (from yeast), β-glucosidases (from almond and bovine liver), α-galactosidase (from coffee beans), β-galactosidase (from bovine liver), α-mannosidase (from Jack bean), β-mannosidase (from snail), α-L-rhamnosidase (from Penicillium decumbens), α-L-fucosidase (from bovine kidney), trehalase (from porcine kidney), β-glucuronidases (from E. coli and bovine liver), amyloglucosidase (from A. niger), para-nitrophenyl glycosides, and various disaccharides were purchased from Sigma-Aldrich Co.
as §5

[3] = tested on: HT29 (colorectal carcinoma); assay: Cancer screening (MTT growth inhibition), HT29; assay type: cell-based; conditions: 72 h; for Percentage (%) cell growth inhibition: 25 µM of drug; for Percentage (%) cell growth inhibition / inhibition at 25 µM: n = 3, mean ± SEM; for inhibition at 25 µM: HT-29, 25 µM of drug, read-out: Percentage (%) cell growth inhibition
Method: as §1, §2

[4] = tested on: Penicillium decumbens α-L-rhamnosidase; assay: Glycosidase inhibition, Penicillium decumbens α-L-rhamnosidase; assay type: biochemical; conditions: for inhibition %: in methanol
Source text: as §3, §4, §6, §5

[5] = tested on: Du145 (prostate carcinoma); assay: Cancer screening (MTT growth inhibition), Du145; assay type: cell-based; conditions: 72 h; for Percentage (%) cell growth inhibition: 25 µM of drug; for Percentage (%) cell growth inhibition / inhibition at 25 µM: n = 3, mean ± SEM; for inhibition at 25 µM: DU-145, 25 µM of drug, read-out: Percentage (%) cell growth inhibition
Method: as §1, §2

A431 (skin carcinoma) = assay: Cancer screening (MTT growth inhibition), A431; assay type: cell-based; conditions: 72 h; for Percentage (%) cell growth inhibition: 25 µM of drug; for Percentage (%) cell growth inhibition / inhibition at 25 µM: n = 3, mean ± SEM; for inhibition at 25 µM: A-431, 25 µM of drug, read-out: Percentage (%) cell growth inhibition
Method: as §1, §2

[6] = tested on: all cell lines (cancer cell lines and normal cell line); assay: Cancer screening, all cell lines; assay type: cell-based; conditions: all cancer cell lines and the normal cell line
Method: as §1, with “The cancer cell lines were maintained in Dulbecco’s modified Eagle’s medium (DMEM; Sigma, Australia) supplemented with fetal bovine serum (10%), sodium pyruvate (10 mM), penicillin (100 IUmL^−1), streptomycin (100 µg mL^−1), and L-glutamine (2 mM).” left out
as §2, with “On day 0 (24 h after plating), when the cells are in logarithmic growth, medium (100 µL) with or without the test agent was added to each well.” left out

Solubility in water = assay type: physicochemical
[7] = tested on: ADDP (Cis Res Ovarian) cell line; assay: Cancer screening (MTT growth inhibition), ADDP; assay type: cell-based
Method: as §1, with “The cancer cell lines were maintained in Dulbecco’s modified Eagle’s medium (DMEM; Sigma, Australia) supplemented with fetal bovine serum (10%), sodium pyruvate (10 mM), penicillin (100 IUmL^−1), streptomycin (100 µg mL^−1), and L-glutamine (2 mM).” left out
as §2, with “On day 0 (24 h after plating), when the cells are in logarithmic growth, medium (100 µL) with or without the test agent was added to each well.” left out

Compound | Percentage (%) cell growth inhibition (BE2-C (neuroblastoma)) [%] | NI: No inhibition ([1]; at 1000 μM) | inhibition % ([1]; at 1000 μM) [%] | Percentage (%) cell growth inhibition (SJ-G2 (glioblastoma)) [%] | Percentage (%) cell growth inhibition [2] [%] | Percentage (%) cell growth inhibition (MCF-7 (breast carcinoma)) [%] | NI: No inhibition (snail β-mannosidase; at 1000 μM) | inhibition at 25 µM (BE2-C (neuroblastoma); Homo sapiens, BE(2)-C) [%] | NI: No inhibition ([1]; at 100 μM) | inhibition % ([1]; at 100 μM) [%] | inhibition at 25 µM (SJ-G2 (glioblastoma)) [%] | inhibition at 25 µM ([2]; Homo sapiens, MCF-10A) [%] | inhibition at 25 µM (MCF-7 (breast carcinoma); Homo sapiens) [%] | NI: No inhibition (snail β-mannosidase; at 100 μM) | inhibition % (snail β-mannosidase; at 100 μM) [%] | inhibition at 25 µM ([3]; Homo sapiens) [%] | NI: No inhibition ([4]; at 100 μM) | inhibition % ([4]; at 100 μM) [%] | inhibition at 25 µM ([5]; Homo sapiens) [%] | inhibition at 25 µM (A431 (skin carcinoma); Homo sapiens) [%] | also measured
Borocaptate sodium [BSH] | 10 ± 6 | NI (No inhibition (less than 50% inhibition at 1000 μM)) | 0 | 3 ± 8 | 8 ± 3 | 15 ± 3 | NI (No inhibition (less than 50% inhibition at 1000 μM)) |  |  |  |  |  |  |  |  |  |  |  |  |  | inhibition % (snail β-mannosidase; at 1000 μM): 19.2%; Percentage (%) cell growth inhibition [3]: 3 ± 2%; NI: No inhibition ([4]; at 1000 μM): NI (No inhibition (less than 50% inhibition at 1000 μM)); inhibition % ([4]; at 1000 μM): 0.2%; Percentage (%) cell growth inhibition [5]: 0 ± 8%; Percentage (%) cell growth inhibition (A431 (skin carcinoma)): <0%
N[C@@H](Cc1ccc(B(O)O)cc1)C(=O)O [BPA, 4-borono-L-phenylalanine] |  |  |  |  |  |  |  | 13 ± 10 | NI (No inhibition (less than 50% inhibition at 100 μM)) | 0 | 5 ± 8 | 4 ± 1 | < 0 | NI (No inhibition (less than 50% inhibition at 100 μM)) | 2.1 | 14 | NI (No inhibition (less than 50% inhibition at 100 μM)) | 0 | 19 ± 10 | 4 ± 6 | 
CC1(C)OCC(C2OC3OC(C)(C)OC3C2[B-]23OCC[NH+]2CCO3)O1 [Compound 6, 3-Deoxy-3-Boronodiethanolamine-1,2:5,6-Di-O-isopropylidene-α-D-galactofuranose] |  |  |  |  |  |  |  | 2 ± 5 | NI (No inhibition (less than 50% inhibition at 100 μM)) | 3.1 | < 0 | 5 ± 1 | 14 ± 5 | NI (No inhibition (less than 50% inhibition at 100 μM)) | 0 | 10 ± 5 | NI (No inhibition (less than 50% inhibition at 100 μM)) | 0.3 | 0 | 0 | GI50 [6]: > 50 µM; solubility in water (Solubility in water): soluble in water
OCC1OC(O)C(O)C(B(O)O)C1O [Compound 7, 3-Boronic-3-Deoxy-D-galactose] |  | NI (No inhibition (less than 50% inhibition at 1000 μM)) | 18.3 |  |  |  | NI (No inhibition (less than 50% inhibition at 1000 μM)) | 1 ± 2 |  |  | 7 ± 4 | 7 ± 3 | 2 ± 2 |  |  | -2 ± 2 |  |  | 7 ± 4 | 3 | GI50 (BE2-C (neuroblastoma); Homo sapiens, BE(2)-C, dose response, read-out: GI50 = Concentration that inhibits cell growth by 50%): > 50 µM; GI50 [6]: > 50 µM; solubility in water (Solubility in water): soluble in water; GI50 (SJ-G2 (glioblastoma); SJ-G2, dose response, read-out: GI50 = Concentration that inhibits cell growth by 50%): > 50 µM; GI50 ([2]; Homo sapiens, MCF-10A, dose response, read-out: GI50 = Concentration that inhibits cell growth by 50%): > 50 µM; GI50 (MCF-7 (breast carcinoma); Homo sapiens, MCF7, dose response, read-out: GI50 = Concentration that inhibits cell growth by 50%): > 50 µM; inhibition at 25 µM ([7]; 25 µM of drug, 72 h, MTT): 2%; GI50 ([7]; dose response, unit from table title): > 50 µM; inhibition % (snail β-mannosidase; at 1000 μM): 0%; GI50 ([3]; Homo sapiens, HT-29, dose response, read-out: GI50 = Concentration that inhibits cell growth by 50%): > 50 µM; NI: No inhibition ([4]; at 1000 μM): NI (No inhibition (less than 50% inhibition at 1000 μM)); inhibition % ([4]; at 1000 μM): 0%; GI50 ([5]; Homo sapiens, DU-145, dose response, read-out: GI50 = Concentration that inhibits cell growth by 50%): > 50 µM; GI50 (A431 (skin carcinoma); Homo sapiens, A-431, dose response, read-out: GI50 = Concentration that inhibits cell growth by 50%): > 50 µM
N[C@@H](Cc1ccc(B(O)O)cc1)C(=O)O [^10B-BPA] | 10 ± 6 |  |  | 5 ± 10 | <0 | 1 ± 3 |  |  | NI (No inhibition (less than 50% inhibition at 100 μM)) | 0 |  |  |  | NI (No inhibition (less than 50% inhibition at 100 μM)) | 0.3 |  | NI (No inhibition (less than 50% inhibition at 100 μM)) | 0 |  |  | Percentage (%) cell growth inhibition [3]: 15 ± 4%; Percentage (%) cell growth inhibition [5]: 15 ± 9%; Percentage (%) cell growth inhibition (A431 (skin carcinoma)): 4 ± 4%
